ChEMBL document CHEMBL1201862, “PubChem BioAssay data set” (2004)
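Cultured in 96-well plates, cells were exposed to test compound for 48 hours across five concentrations. At the GI50, growth is halved.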 The source made the active and inactive calls. Cut-off read from the data, not from the text of the source: active = GI50 up to about 1.1 µM and inactive = higher. Square brackets hold non-standard residues; d marks the D form. Peptide text beside a SMILES is read from it. * marks the point of attachment. ξ: configuration not given here. ξF = NC(Cc1ccccc1)C(=O)O; Cbz = O=C(OCc1ccccc1)*; Aib = CC(C)(N)C(=O)O

Key:
Test in all cases: inhibition of tumour cell growth, NCI panel, 48 h
[1] = system: A498
[2] = system: BT-549
[3] = system: CCRF-CEM
[4] = system: DU-145
[5] = system: HL-60
[6] = system: HOP-62
[7] = system: HT-29
[8] = system: Malme-3M
[9] = system: NCI-H226
[10] = system: NCI-H23
[11] = system: NCI-H460
[12] = system: OVCAR-5
[13] = system: SF-295
[14] = system: SK-MEL-2
[15] = system: SK-MEL-5
[16] = system: SK-OV-3
[17] = system: SN12C
[18] = system: SNB-75
[19] = system: TK-10
[20] = system: NCI-H522

## CCOC(=O)C(Cl)(Cl)/S(=N\S(=O)(=O)c1ccccc1)NC(=O)c1ccccc1 (centres undefined)
[1]
  GI50: > 100 µM (inactive)
[2]
  GI50: > 100 µM (inactive)
[3]
  GI50: > 100 µM (inactive)
[4]
  GI50: > 100 µM (inactive)
[5]
  GI50: 0.65 µM (active)
[6]
  GI50: > 100 µM (inactive)
[7]
  GI50: > 100 µM (inactive)
[8]
  GI50: > 100 µM (inactive)
[9]
  GI50: > 100 µM (inactive)
[10]
  GI50: > 100 µM (inactive)
[11]
  GI50: > 100 µM (inactive)
[12]
  GI50: > 100 µM (inactive)
[13]
  GI50: > 100 µM (inactive)
[14]
  GI50: > 100 µM (inactive)
[15]
  GI50: > 100 µM (inactive)
[16]
  GI50: > 100 µM (inactive)
[17]
  GI50: > 100 µM (inactive)
[18]
  GI50: > 100 µM (inactive)
[19]
  GI50: > 100 µM (inactive)

## Cc1ccc(C)n2c1nc1ccccc12
[1]
  GI50: 1.46 µM (inactive)
[2]
  GI50: > 100 µM (inactive)
[3]
  GI50: > 100 µM (inactive)
[4]
  GI50: > 100 µM (inactive)
[5]
  GI50: > 100 µM (inactive)
[6]
  GI50: 85.5 µM (inactive)
[7]
  GI50: 31.9 µM (inactive)
[8]
  GI50: > 100 µM (inactive)
[9]
  GI50: > 100 µM (inactive)
[10]
  GI50: > 100 µM (inactive)
[11]
  GI50: 25.5 µM (inactive)
[12]
  GI50: > 100 µM (inactive)
[13]
  GI50: > 100 µM (inactive)
[15]
  GI50: 82.8 µM (inactive)
[16]
  GI50: > 100 µM (inactive)
[17]
  GI50: > 100 µM (inactive)
[18]
  GI50: 24.9 µM (inactive)
[19]
  GI50: > 100 µM (inactive)

## O=C(Nc1ccc(Cl)cc1)[C-](C(=O)c1ccc(Br)cc1)[n+]1cccc(-c2ccc(Cl)cc2)n1
[1]
  GI50: 9.71 µM (inactive)
[2]
  GI50: 2.54 µM (inactive)
[4]
  GI50: 5.45 µM (inactive)
[6]
  GI50: 6.28 µM (inactive)
[8]
  GI50: 2.86 µM (inactive)
[10]
  GI50: 2.37 µM (inactive)
[11]
  GI50: 3.44 µM (inactive)
[20]
  GI50: 2.26 µM (inactive)
[12]
  GI50: 4.24 µM (inactive)
[13]
  GI50: 2.6 µM (inactive)
[14]
  GI50: 3.57 µM (inactive)
[15]
  GI50: 3.18 µM (inactive)
[16]
  GI50: 6.35 µM (inactive)
[17]
  GI50: 2.88 µM (inactive)
[18]
  GI50: 6.49 µM (inactive)
[19]
  GI50: 5.74 µM (inactive)

## COc1ccc(/N=N/C(=N\c2ccc(Cl)cc2)c2ccc(N(CCC#N)CCC#N)cc2)cc1
[1]
  GI50: 10.4 µM (inactive)
[2]
  GI50: 12.6 µM (inactive)
[3]
  GI50: < 0.01 µM (active)
[4]
  GI50: 20 µM (inactive)
[6]
  GI50: 79.3 µM (inactive)
[7]
  GI50: > 100 µM (inactive)
[9]
  GI50: > 100 µM (inactive)
[10]
  GI50: 40.9 µM (inactive)
[11]
  GI50: 10.1 µM (inactive)
[20]
  GI50: 17.4 µM (inactive)
[12]
  GI50: 47 µM (inactive)
[13]
  GI50: 2.2 µM (inactive)
[14]
  GI50: 0.851 µM (active)
[15]
  GI50: 0.755 µM (active)
[16]
  GI50: > 100 µM (inactive)
[17]
  GI50: > 100 µM (inactive)
[18]
  GI50: 39 µM (inactive)
[19]
  GI50: 38.7 µM (inactive)

## CC(C)(NC(=O)OCc1ccccc1)C(=O)NC(Cc1ccccc1)C(=O)O (centres undefined) (Cbz-[Aib]-[ξF]-OH)
[1]
  GI50: > 100 µM (inactive)
[2]
  GI50: > 100 µM (inactive)
[3]
  GI50: > 100 µM (inactive)
[4]
  GI50: > 100 µM (inactive)
[6]
  GI50: > 100 µM (inactive)
[7]
  GI50: > 100 µM (inactive)
[8]
  GI50: > 100 µM (inactive)
[9]
  GI50: > 100 µM (inactive)
[10]
  GI50: > 100 µM (inactive)
[11]
  GI50: > 100 µM (inactive)
[20]
  GI50: > 100 µM (inactive)
[12]
  GI50: > 100 µM (inactive)
[13]
  GI50: > 100 µM (inactive)
[14]
  GI50: > 100 µM (inactive)
[15]
  GI50: > 100 µM (inactive)
[16]
  GI50: > 100 µM (inactive)
[17]
  GI50: > 100 µM (inactive)
[18]
  GI50: > 100 µM (inactive)

## CC(C)CCCC(C)[C@H]1CC[C@H]2N/C(=N/c3ccccc3)CCC[C@]12C (some centres undefined)
[1]
  GI50: 3.35 µM (inactive)
[2]
  GI50: 2.9 µM (inactive)
[3]
  GI50: 2.51 µM (inactive)
[4]
  GI50: 6.52 µM (inactive)
[5]
  GI50: 1.85 µM (inactive)
[6]
  GI50: 2.52 µM (inactive)
[7]
  GI50: 0.501 µM (active)
[8]
  GI50: 2.67 µM (inactive)
[9]
  GI50: 1.86 µM (inactive)
[10]
  GI50: 1.72 µM (inactive)
[11]
  GI50: 1.93 µM (inactive)
[13]
  GI50: 1.6 µM (inactive)
[14]
  GI50: 1.67 µM (inactive)
[15]
  GI50: 1.27 µM (inactive)
[16]
  GI50: 2.03 µM (inactive)
[17]
  GI50: 1.77 µM (inactive)
[18]
  GI50: 1.88 µM (inactive)
[19]
  GI50: 2.62 µM (inactive)

## CCOC(=O)c1c2c(n(-c3ccc(OC)cc3)c1C)C(=O)C(=O)c1ccccc1-2
[2]
  GI50: 2.02 µM (inactive)
[3]
  GI50: 1.27 µM (inactive)
[4]
  GI50: 1.52 µM (inactive)
[5]
  GI50: 0.0261 µM (active)
[6]
  GI50: 1.78 µM (inactive)
[7]
  GI50: 2.34 µM (inactive)
[8]
  GI50: 0.241 µM (active)
[9]
  GI50: 1.75 µM (inactive)
[10]
  GI50: 0.873 µM (active)
[11]
  GI50: 1.43 µM (inactive)
[20]
  GI50: 2.71 µM (inactive)
[12]
  GI50: 1.88 µM (inactive)
[13]
  GI50: 1.61 µM (inactive)
[14]
  GI50: 3.27 µM (inactive)
[15]
  GI50: 1.06 µM (active)
[16]
  GI50: 2.38 µM (inactive)
[17]
  GI50: 1.58 µM (inactive)
[18]
  GI50: 2.16 µM (inactive)
[19]
  GI50: 1.72 µM (inactive)

## COC(=O)c1ccc(/C=N/c2ccc(S(N)(=O)=O)cc2)cc1
[1]
  GI50: > 100 µM (inactive)
[2]
  GI50: > 100 µM (inactive)
[3]
  GI50: 30.8 µM (inactive)
[4]
  GI50: > 100 µM (inactive)
[5]
  GI50: 97.1 µM (inactive)
[6]
  GI50: > 100 µM (inactive)
[7]
  GI50: > 100 µM (inactive)
[8]
  GI50: 85.5 µM (inactive)
[9]
  GI50: > 100 µM (inactive)
[10]
  GI50: 0.0188 µM (active)
[11]
  GI50: > 100 µM (inactive)
[12]
  GI50: > 100 µM (inactive)
[13]
  GI50: > 100 µM (inactive)
[14]
  GI50: 22 µM (inactive)
[15]
  GI50: > 100 µM (inactive)
[16]
  GI50: > 100 µM (inactive)
[17]
  GI50: 73.8 µM (inactive)
[18]
  GI50: 58.9 µM (inactive)
[19]
  GI50: > 100 µM (inactive)

## CC(C)(C)/C(O)=C\c1nc2cc(F)c(F)cc2[nH]c1=O
[1]
  GI50: > 100 µM (inactive)
[2]
  GI50: > 100 µM (inactive)
[3]
  GI50: > 100 µM (inactive)
[4]
  GI50: 25.7 µM (inactive)
[5]
  GI50: > 100 µM (inactive)
[6]
  GI50: > 100 µM (inactive)
[7]
  GI50: > 100 µM (inactive)
[9]
  GI50: > 100 µM (inactive)
[10]
  GI50: > 100 µM (inactive)
[11]
  GI50: > 100 µM (inactive)
[13]
  GI50: > 100 µM (inactive)
[14]
  GI50: > 100 µM (inactive)
[15]
  GI50: > 100 µM (inactive)
[16]
  GI50: > 100 µM (inactive)
[18]
  GI50: > 100 µM (inactive)
[19]
  GI50: > 100 µM (inactive)

## Cc1cccc2c1CC(Cc1ccccc1C(=O)O)C2=O (centres undefined)
[2]
  GI50: > 100 µM (inactive)
[3]
  GI50: > 100 µM (inactive)
[4]
  GI50: > 100 µM (inactive)
[5]
  GI50: > 100 µM (inactive)
[6]
  GI50: > 100 µM (inactive)
[7]
  GI50: > 100 µM (inactive)
[8]
  GI50: > 100 µM (inactive)
[9]
  GI50: > 100 µM (inactive)
[10]
  GI50: > 100 µM (inactive)
[11]
  GI50: > 100 µM (inactive)
[20]
  GI50: > 100 µM (inactive)
[12]
  GI50: > 100 µM (inactive)
[13]
  GI50: > 100 µM (inactive)
[14]
  GI50: > 100 µM (inactive)
[15]
  GI50: > 100 µM (inactive)
[16]
  GI50: > 100 µM (inactive)
[17]
  GI50: > 100 µM (inactive)
[18]
  GI50: > 100 µM (inactive)
[19]
  GI50: > 100 µM (inactive)

## Cn1c2ccccc2c(=NNc2ccc(C(=O)O)cc2)c2ccccc21
[2]
  GI50: 21.6 µM (inactive)
[3]
  GI50: 15.2 µM (inactive)
[4]
  GI50: 19.5 µM (inactive)
[5]
  GI50: 14.6 µM (inactive)
[6]
  GI50: 18.8 µM (inactive)
[7]
  GI50: 13.1 µM (inactive)
[8]
  GI50: 21.1 µM (inactive)
[9]
  GI50: 17.7 µM (inactive)
[10]
  GI50: 21.1 µM (inactive)
[11]
  GI50: 16.1 µM (inactive)
[20]
  GI50: 10.7 µM (inactive)
[12]
  GI50: 17.8 µM (inactive)
[13]
  GI50: 20.8 µM (inactive)
[14]
  GI50: 19.6 µM (inactive)
[15]
  GI50: 17.6 µM (inactive)
[16]
  GI50: 17.3 µM (inactive)
[17]
  GI50: 18.1 µM (inactive)
[18]
  GI50: 19.8 µM (inactive)
[19]
  GI50: 21.3 µM (inactive)
